Patent US20190282590A1, “MEDICAMENT FOR TREATMENT AND/OR PROPHYLACTIC TREATMENT OF BREAST CANCER” (HAKMED AB, priority 2016, published 2019)

Assays:
[1] = assay type: in vivo
Source text: Since July 2005 369 cases of MBC were identified from the Swedish Cancer Register and each case was matched to five controls (n=[…]) from the general population of the same age and domicile. Medicines with documented side effects of hormonal imbalance or gynecomastia were collected from the Prescribed Drug Register in operation since July 2005. Drug exposure was followed both for cases and controls until the cancer diagnosis or death of the case. Cases and controls with a diagnosis of prostate cancer were excluded. The data were mainly analyzed with conditional logistic regression and Cox regression.
Cox regression and nested case-control analysis were used in analysis of the ever-use variable of any of the included medicines, after the exclusion phases (described below), as well as after the grouping phase and generated study design-specific hazard ratios (HR) and 95% confidence intervals (CI). P-values less than 0.05 were considered statistically significant. All processing of the data and statistical analysis was made using R programming for statistical computing and ended with the effectuation of conditional logistic regression, Cox regression and nested case-control. Using multiple statistical methods provided additional statistical certainty.
In this second line of statistical analysis, the match sets created by Statistics Sweden were kept, using the ID number of the case to connect the five matched controls to each case. All medical use after the time of diagnosis of the case was excluded, which applied also to the controls, meaning that the matched control's medical usage after the date of diagnosis of the case was censored using the predefined match sets. All subjects were classified as non-users until the date of the first prescription of one of the included medicines. […]
The first prescribed medicine for each individual with recorded medical use was selected, since this was likely to be the medicine each individual had used for the longest period of time. […]

[2] = prevention mainly limited to less severe prostate cancer; cited from earlier work
[3] = cited from earlier work
[4] = except in skeletal muscle tissue; cited from earlier work

COc1cc2nc(N(C)CCCNC(=O)C3CCCO3)nc(N)c2cc1OC (stereo not shown) [Alfuzosin]
Association of medication use with risk of MBC (in words) [1]: significant correlation to increased risk of MBC

COc1cc2nc(N3CCN(C(=O)C4CCCO4)CC3)nc(N)c2cc1OC (stereo not shown) [Terazosin]
Association of medication use with risk of MBC (in words) [1]: significant correlation to increased risk of MBC

C[C@]12C=CC(=O)N[C@@H]1CC[C@@H]1[C@@H]2CC[C@]2(C)[C@@H](C(=O)Nc3cc(C(F)(F)F)ccc3C(F)(F)F)CC[C@@H]12 [dutasteride, (5α,17β)-N-{2,5-Bis(trifluoromethyl)phenyl}-3-oxo-4-azaandrost-1-ene-17-carboxamide]
Preventive effect on MBC (in words) ([1]; register study, 5-ARI users): preventive effect was strongest | Effect on prostate cancer (in words) [2]: a better prognosis has been shown | Adverse effects in clinical studies ([3]; 5 mg daily for 6 months, patients, compared with therapeutic dose 0.5 mg): no additional adverse effects | Safety of single daily doses ([3]; up to 40 mg/day (80 times the therapeutic dose) for 7 days, healthy volunteers): without significant safety concerns

C[C@]12CCC(=O)C[C@@H]1CC[C@@H]1[C@@H]2CC[C@]2(C)[C@@H](O)CC[C@@H]12 [DHT, dihydrotestosterone]
Potency relative to testosterone or other androgens [4]: 3-5 times
